Article PMC6152209, “Synthesis, Characterization and In Vitro Evaluation of a Novel Glycol Chitosan-EDTA Conjugate to Inhibit Aminopeptidase-Mediated Degradation of Thymopoietin Oligopeptides” (Molecules : A Journal of Synthetic Chemistry and Natural …, 2017)
Read-outs that look alike come from different tables or passages of the source. Residues, ends and D or L forms follow the SMILES beside them.

Assays:
leucine aminopeptidase [1] = molecular target: T1, leucine aminopeptidase (Sus scrofa, UniProt P15145); details: pH 7
T1 sequence (P15145 1-963): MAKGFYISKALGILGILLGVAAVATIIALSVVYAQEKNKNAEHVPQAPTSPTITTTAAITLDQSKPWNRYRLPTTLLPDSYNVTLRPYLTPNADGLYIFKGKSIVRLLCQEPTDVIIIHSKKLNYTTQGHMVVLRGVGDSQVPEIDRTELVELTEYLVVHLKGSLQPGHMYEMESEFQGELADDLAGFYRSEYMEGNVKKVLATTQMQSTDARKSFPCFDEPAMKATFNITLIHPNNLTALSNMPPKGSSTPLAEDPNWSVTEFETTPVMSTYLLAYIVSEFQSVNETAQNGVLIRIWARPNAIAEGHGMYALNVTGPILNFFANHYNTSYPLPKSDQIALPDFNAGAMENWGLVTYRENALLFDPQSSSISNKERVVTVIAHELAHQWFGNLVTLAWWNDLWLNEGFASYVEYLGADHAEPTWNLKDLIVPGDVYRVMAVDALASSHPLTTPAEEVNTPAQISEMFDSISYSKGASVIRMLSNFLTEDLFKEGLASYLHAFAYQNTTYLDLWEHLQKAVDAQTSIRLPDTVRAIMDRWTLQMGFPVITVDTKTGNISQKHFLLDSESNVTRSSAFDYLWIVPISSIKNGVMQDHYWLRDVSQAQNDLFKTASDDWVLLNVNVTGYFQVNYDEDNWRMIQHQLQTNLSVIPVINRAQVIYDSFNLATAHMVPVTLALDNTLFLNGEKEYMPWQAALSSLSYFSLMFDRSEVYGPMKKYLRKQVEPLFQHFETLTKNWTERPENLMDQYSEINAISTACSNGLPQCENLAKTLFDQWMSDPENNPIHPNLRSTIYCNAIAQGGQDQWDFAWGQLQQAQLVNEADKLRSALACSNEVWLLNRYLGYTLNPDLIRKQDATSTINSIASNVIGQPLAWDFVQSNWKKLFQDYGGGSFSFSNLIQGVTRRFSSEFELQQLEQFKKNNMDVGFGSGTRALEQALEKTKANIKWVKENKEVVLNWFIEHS
Description: (§1) After a 30-min enzymatic activation, the stock solutions of three thymopoietin oligopeptides were added into the above solution and made the final concentration of peptides at 0.1 mM. At specified time intervals after adding peptide, 100 µL aliquots were sampled and diluted with an equal volume of 1 M perchloric acid incubated in an ice bath to stop reaction. Meanwhile, a 100 mL aliquot of the abovementioned buffer was added to the incubation medium. […] All experiments were replicated at least three times.
(§2) Cldeg was determined by linear regression analysis from plots of ΣM versus the AUC at different time points [3, 11].

leucine aminopeptidase [2] = molecular target: T1, leucine aminopeptidase; experiment: leucine aminopeptidase-mediated degradation of thymopoietin oligopeptides (degradation kinetics and clearance); details: peptide 0.1 mM, LAP 0.01 U/mL, Krebs phosphate buffer pH 7.0, 37 °C, RP-HPLC, Cldeg from ΣM versus AUC, at least three replicates
Description: as §1, §2

[3] = cobalt ion chelation-mediated fluorescence recovery of calcein; type: physicochemical; details: calcein 0.0625 µg/mL, calcein:cobalt dichloride 1:1 molar, normalized maximum fluorescence emission F/F0, excitation 490 nm
Description: It is well known that calcein fluorescence can be strongly quenched by cobalt ions at physiological pH, while removal of cobalt ion from the complex by EDTA-mediated chelation will lead to a significant increase in fluorescence intensity. Thus, the chelating capacity of the resultant conjugate can be determined by measuring the cobalt ion-chelating-mediated fluorescence recovery of calcein. […] The excitation wavelength of calcein was set at 490 and its emission was monitored in the range of 500–650 nm. The slits of excitation and emission were set at 5 and 3 nm, respectively. All background effects were subtracted. In addition, the same experiment was done in the presence of EDTA.

N=C(N)NCCC[C@H](N)C(=O)N[C@@H](CCCCN)C(=O)N[C@@H](CC(=O)O)C(=O)O [TP3, Thymotrinan] (H-Arg-Lys-Asp-OH)
order of susceptibility to leucine aminopeptidase (degradation clearance) (leucine aminopeptidase [1]): TP4 > TP5 > TP3

CC(C)[C@H](NC(=O)[C@H](CC(=O)O)NC(=O)[C@H](CCCCN)NC(=O)[C@@H](N)CCCNC(=N)N)C(=O)O [TP4, thymocartin] (H-RKDV-OH)
order of susceptibility to leucine aminopeptidase (degradation clearance) (leucine aminopeptidase [2]): TP4 > TP5 > TP3

O=C(O)CN(CCN(CC(=O)O)CC(=O)O)CC(=O)O [EDTA, ethylene diamine tetraacetic acid]
EDTA group concentration above which the calcein fluorescence plateau was reached (almost complete removal of cobalt ions from the calcein/cobalt ion complex) [3]: higher than 0.67 µM
